According to patent publication US10201523B2, “Use of wilforlide A for overcoming chemotherapy resistance” (WESTERN UNIVERSITY OF HEALTH SCIENCES, priority 2013, dated 2019):
Where “and” joins values, the source holds several entries; their conditions need not be identical. Identical values can stand only once.

System: Bt474-TxR
Test: SRB cell viability assay, lapatinib with/without wilforlide A pretreatment
Type: cell-based
[1] = Lapatinib 0.067 μM, 72 h, no wilforlide A pretreatment, Table 25
[2] = Lapatinib 0.2 μM, 72 h, pretreated with 25 μg/ml wilforlide A for 2 h, Table 26
[3] = Lapatinib 0.67 μM, 72 h, no wilforlide A pretreatment, Table 27
[4] = Lapatinib 0.67 μM, 72 h, pretreated with 25 μg/ml wilforlide A for 2 h, Table 26
[5] = Lapatinib 2.0 μM, 72 h, no wilforlide A pretreatment, Table 25
[6] = Lapatinib 2.0 μM, 72 h, no wilforlide A pretreatment, Table 27
[7] = Lapatinib 2.0 μM, 72 h, pretreated with 25 μg/ml wilforlide A for 2 h, Table 26
[8] = Lapatinib 6.7 μM, 72 h, no wilforlide A pretreatment, Table 25
[9] = Lapatinib 6.7 μM, 72 h, no wilforlide A pretreatment, Table 27
[10] = Lapatinib 6.7 μM, 72 h, pretreated with 25 μg/ml wilforlide A for 2 h, Table 26
[11] = Lapatinib 20 μM, 72 h, no wilforlide A pretreatment, Table 25
[12] = Lapatinib 20 μM, 72 h, no wilforlide A pretreatment, Table 27
[13] = Lapatinib 20 μM, 72 h, pretreated with 25 μg/ml wilforlide A for 2 h, Table 26

CS(=O)(=O)CCNCc1ccc(-c2ccc3ncnc(Nc4ccc(OCc5cccc(F)c5)c(Cl)c4)c3c2)o1 [lapatinib]
viability at 0.001 µM (72 h, Bt474-TxR, wilforlide A 2.5 μg/ml pre-Tx, lapatinib 0.001 μM 72 h): 100%
viability at 0.01 µM (72 h, Bt474-TxR, wilforlide A 2.5 μg/ml pre-Tx, lapatinib 0.01 μM 72 h): 103%
viability at 0.067 µM (72 h, Bt474-TxR, wilforlide A 2.5 μg/ml pre-Tx, lapatinib 0.067 μM 72 h): 96.1%
viability at 0.2 µM (72 h, Bt474-TxR, wilforlide A 2.5 μg/ml pre-Tx, lapatinib 0.2 μM 72 h): 84.8%
viability at 0.67 µM (72 h, Bt474-TxR, wilforlide A 2.5 μg/ml pre-Tx, lapatinib 0.67 μM 72 h): 76%
viability at 2 µM (72 h, Bt474-TxR, wilforlide A 2.5 μg/ml pre-Tx, lapatinib 2.0 μM 72 h): 67.4%
viability at 6.7 µM (72 h, Bt474-TxR, wilforlide A 2.5 μg/ml pre-Tx, lapatinib 6.7 μM 72 h): 70.2%
viability at 20 µM (72 h, Bt474-TxR, wilforlide A 2.5 μg/ml pre-Tx, lapatinib 20 μM 72 h): 60.9%
mean A (Bt474-TxR, wilforlide A 2.5 μg/ml pre-Tx, lapatinib 0.001 μM 72 h): 1.260
A at 565 nm (Bt474-TxR, wilforlide A 2.5 μg/ml pre-Tx, lapatinib 0.001 μM 72 h, background = 0.045): 1.301 and 1.370
mean A (Bt474-TxR, wilforlide A 2.5 μg/ml pre-Tx, lapatinib 0.01 μM 72 h): 1.293
A at 565 nm (Bt474-TxR, wilforlide A 2.5 μg/ml pre-Tx, lapatinib 0.01 μM 72 h, background = 0.045): 1.309 and 1.368
A at 565 nm (Bt474-TxR, wilforlide A 2.5 μg/ml pre-Tx, lapatinib 0.067 μM 72 h, background = 0.045): 1.297
mean A (Bt474-TxR, wilforlide A 2.5 μg/ml pre-Tx, lapatinib 0.67 μM 72 h): 0.957
A at 565 nm (Bt474-TxR, wilforlide A 2.5 μg/ml pre-Tx, lapatinib 0.67 μM 72 h, background = 0.045): 0.898 and 0.975
mean A (Bt474-TxR, wilforlide A 2.5 μg/ml pre-Tx, lapatinib 2.0 μM 72 h): 0.849
A at 565 nm (Bt474-TxR, wilforlide A 2.5 μg/ml pre-Tx, lapatinib 2.0 μM 72 h, background = 0.045): 0.895 and 0.791 and 0.861
mean A (Bt474-TxR, wilforlide A 2.5 μg/ml pre-Tx, lapatinib 6.7 μM 72 h): 0.884
A at 565 nm (Bt474-TxR, wilforlide A 2.5 μg/ml pre-Tx, lapatinib 6.7 μM 72 h, background = 0.045): 0.947 and 0.814 and 0.893
mean A (Bt474-TxR, wilforlide A 2.5 μg/ml pre-Tx, lapatinib 20 μM 72 h): 0.768
A at 565 nm (Bt474-TxR, wilforlide A 2.5 μg/ml pre-Tx, lapatinib 20 μM 72 h, background = 0.045): 0.798 and 0.689 and 0.817
viability at 0.001 µM (Lapatinib 0.001 μM, 72 h, no wilforlide A pretreatment, Table 25): 100%
A at 565 nm (Lapatinib 0.001 μM, 72 h, no wilforlide A pretreatment, Table 25, background = 0.045): 1.272 and 1.341
viability at 0.001 µM (Lapatinib 0.001 μM, 72 h, no wilforlide A pretreatment, Table 27): 100%
viability at 0.001 µM (Lapatinib 0.001 μM, 72 h, pretreated with 25 μg/ml wilforlide A for 2 h, Table 26): 100%
mean A (Lapatinib 0.01 μM, 72 h, no wilforlide A pretreatment, Table 25): 1.338
A at 565 nm (Lapatinib 0.01 μM, 72 h, no wilforlide A pretreatment, Table 25, background = 0.045): 1.352 and 1.344 and 1.318
viability at 0.01 µM (Lapatinib 0.01 μM, 72 h, no wilforlide A pretreatment, Table 27): 99.5%
viability at 0.01 µM (Lapatinib 0.01 μM, 72 h, pretreated with 25 μg/ml wilforlide A for 2 h, Table 26): 96.2%
mean A [1]: 1.304
viability at 0.067 µM [1]: 105%
A at 565 nm (Lapatinib 0.067 μM, 72 h, no wilforlide A pretreatment, Table 25, background = 0.045): 1.320 and 1.343
viability at 0.067 µM (Lapatinib 0.067 μM, 72 h, no wilforlide A pretreatment, Table 27): 98.7%
viability at 0.067 µM (Lapatinib 0.067 μM, 72 h, pretreated with 25 μg/ml wilforlide A for 2 h, Table 26): 94.6%
viability at 0.2 µM (Lapatinib 0.2 μM, 72 h, no wilforlide A pretreatment, Table 25): 92.8%
viability at 0.2 µM (Lapatinib 0.2 μM, 72 h, no wilforlide A pretreatment, Table 27): 94%
mean A [2]: 0.994
viability at 0.2 µM [2]: 86.6%
A at 565 nm (Lapatinib 0.2 μM, 72 h, pretreated with 25 μg/ml wilforlide A for 2 h, Table 26, background = 0.047): 0.963
viability at 0.67 µM (Lapatinib 0.67 μM, 72 h, no wilforlide A pretreatment, Table 25): 87%
mean A [3]: 0.994
viability at 0.67 µM [3]: 85%
A at 565 nm (Lapatinib 0.67 μM, 72 h, no wilforlide A pretreatment, Table 27, background = 0.047): 0.955
mean A [4]: 0.872
viability at 0.67 µM [4]: 76%
A at 565 nm (Lapatinib 0.67 μM, 72 h, pretreated with 25 μg/ml wilforlide A for 2 h, Table 26, background = 0.047): 0.813 and 0.937 and 0.865
mean A [5]: 0.987
viability at 2 µM [5]: 79.1%
A at 565 nm (Lapatinib 2.0 μM, 72 h, no wilforlide A pretreatment, Table 25, background = 0.045): 0.951
mean A [6]: 0.831
viability at 2 µM [6]: 71%
A at 565 nm (Lapatinib 2.0 μM, 72 h, no wilforlide A pretreatment, Table 27, background = 0.047): 0.887 and 0.809 and 0.797
mean A [7]: 0.832
viability at 2 µM [7]: 72.5%
A at 565 nm (Lapatinib 2.0 μM, 72 h, pretreated with 25 μg/ml wilforlide A for 2 h, Table 26, background = 0.047): 0.876 and 0.831 and 0.789
mean A [8]: 0.925
viability at 6.7 µM [8]: 74.2%
A at 565 nm (Lapatinib 6.7 μM, 72 h, no wilforlide A pretreatment, Table 25, background = 0.045): 0.926 and 0.823
mean A [9]: 0.795
viability at 6.7 µM [9]: 68%
A at 565 nm (Lapatinib 6.7 μM, 72 h, no wilforlide A pretreatment, Table 27, background = 0.047): 0.866 and 0.798 and 0.722
mean A [10]: 0.729
viability at 6.7 µM [10]: 63.5%
A at 565 nm (Lapatinib 6.7 μM, 72 h, pretreated with 25 μg/ml wilforlide A for 2 h, Table 26, background = 0.047): 0.663 and 0.737 and 0.787
mean A [11]: 0.876
viability at 20 µM [11]: 70.2%
A at 565 nm (Lapatinib 20 μM, 72 h, no wilforlide A pretreatment, Table 25, background = 0.045): 0.911 and 0.914 and 0.803
mean A [12]: 0.746
viability at 20 µM [12]: 63.8%
A at 565 nm (Lapatinib 20 μM, 72 h, no wilforlide A pretreatment, Table 27, background = 0.047): 0.807 and 0.697 and 0.735
mean A [13]: 0.587
viability at 20 µM [13]: 51.2%
A at 565 nm (Lapatinib 20 μM, 72 h, pretreated with 25 μg/ml wilforlide A for 2 h, Table 26, background = 0.047): 0.530 and 0.655 and 0.577
